# Results taken from PubChem BioAssay AID1963427 (Molecular Pharmacology Branch, DTP, NCI, 2024).
# pIC50: −log10 of the molar value.
# Test system: 317291-083-R-J1-PDC complex spheroid growth
# Test: Anticancer human tumor 317291-083-R-J1-PDC patient-derived soft tissue sarcoma cell line growth inhibition [Asc]
# Details: for pIC50: curve of first compound; for viability, T/C: stronger effect = lower value
# Summary of the method: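 Tumor cells were grown as complex spheroids with human endothelial cells (HUVEC) and human mesenchymal stem cells as stroma. Agents were tested alone and in combination, in half-log steps down from the clinical Cmax, or from 10 microM where Cmax was unknown.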
# 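Note: compound exposure lasted seven days after spheroids formed for three days.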
# 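Throughout, for viability, T/C: 100% = DMSO vehicle control wells.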
smiles,measurement,setting,value
CCN1CCN(Cc2ccc(Nc3ncc(F)c(-c4cc(F)c5nc(C)n(C(C)C)c5c4)n3)nc2)CC1 + CNC(C)C(=O)NC1CN(S(=O)(=O)c2cccc(S(=O)(=O)N3CCC4CCC(C(=O)NC(c5ccccc5)c5ccccc5)N4C(=O)C(NC(=O)C(C)NC)C3)c2)CCC2CCC(C(=O)NC(c3ccccc3)c3ccccc3)N2C1=O,pIC50,second compound 0.00316 µM,6.46
same,pIC50,second compound 0.01 µM,6.49
same,pIC50,second compound 0.0316 µM,6.85
same,pIC50,second compound 0.1 µM,7.15
same,pIC50,second compound 0.316 µM,7.74
same,pIC50,second compound 1 µM,> 8.50
same,"viability, T/C","second compound 0.00316 µM, first compound 0.00316 µM",54.7%
same,"viability, T/C","second compound 0.00316 µM, first compound 0.01 µM",58.7%
same,"viability, T/C","second compound 0.00316 µM, first compound 0.0316 µM",56.8%
same,"viability, T/C","second compound 0.00316 µM, first compound 0.1 µM",65%
same,"viability, T/C","second compound 0.00316 µM, first compound 0.316 µM",48.9%
same,"viability, T/C","second compound 0.00316 µM, first compound 1 µM",28%
same,"viability, T/C","second compound 0.01 µM, first compound 0.00316 µM",89.1%
same,"viability, T/C","second compound 0.01 µM, first compound 0.01 µM",90%
same,"viability, T/C","second compound 0.01 µM, first compound 0.0316 µM",79.2%
same,"viability, T/C","second compound 0.01 µM, first compound 0.1 µM",76%
same,"viability, T/C","second compound 0.01 µM, first compound 0.316 µM",48.8%
same,"viability, T/C","second compound 0.01 µM, first compound 1 µM",31.6%
same,"viability, T/C","second compound 0.0316 µM, first compound 0.00316 µM",80.3%
same,"viability, T/C","second compound 0.0316 µM, first compound 0.01 µM",79.6%
same,"viability, T/C","second compound 0.0316 µM, first compound 0.0316 µM",64.9%
same,"viability, T/C","second compound 0.0316 µM, first compound 0.1 µM",58.4%
same,"viability, T/C","second compound 0.0316 µM, first compound 0.316 µM",35.7%
same,"viability, T/C","second compound 0.0316 µM, first compound 1 µM",40.9%
same,"viability, T/C","second compound 0.1 µM, first compound 0.00316 µM",60.9%
same,"viability, T/C","second compound 0.1 µM, first compound 0.01 µM",50.2%
same,"viability, T/C","second compound 0.1 µM, first compound 0.0316 µM",53.8%
same,"viability, T/C","second compound 0.1 µM, first compound 0.1 µM",45.6%
same,"viability, T/C","second compound 0.1 µM, first compound 0.316 µM",43.5%
same,"viability, T/C","second compound 0.1 µM, first compound 1 µM",22.2%
same,"viability, T/C","second compound 0.316 µM, first compound 0.00316 µM",58.6%
same,"viability, T/C","second compound 0.316 µM, first compound 0.01 µM",49.4%
same,"viability, T/C","second compound 0.316 µM, first compound 0.0316 µM",42.8%
same,"viability, T/C","second compound 0.316 µM, first compound 0.1 µM",48%
same,"viability, T/C","second compound 0.316 µM, first compound 0.316 µM",33.4%
same,"viability, T/C","second compound 0.316 µM, first compound 1 µM",22.7%
same,"viability, T/C","second compound 1 µM, first compound 0.00316 µM",32.9%
same,"viability, T/C","second compound 1 µM, first compound 0.01 µM",36.6%
same,"viability, T/C","second compound 1 µM, first compound 0.0316 µM",36.6%
same,"viability, T/C","second compound 1 µM, first compound 0.1 µM",31.4%
same,"viability, T/C","second compound 1 µM, first compound 0.316 µM",32.2%
same,"viability, T/C","second compound 1 µM, first compound 1 µM",19.5%
NC(=O)C(=Cn1cnc(-c2cc(C(F)(F)F)cc(C(F)(F)F)c2)n1)c1cncnc1 + CNC(C)C(=O)NC1CN(S(=O)(=O)c2cccc(S(=O)(=O)N3CCC4CCC(C(=O)NC(c5ccccc5)c5ccccc5)N4C(=O)C(NC(=O)C(C)NC)C3)c2)CCC2CCC(C(=O)NC(c3ccccc3)c3ccccc3)N2C1=O,pIC50,second compound 0.00316 µM,7.98
same,pIC50,second compound 0.01 µM,7.76
same,pIC50,second compound 0.0316 µM,7.69
same,pIC50,second compound 0.1 µM,8.09
same,pIC50,second compound 0.316 µM,7.91
same,pIC50,second compound 1 µM,8.65
same,"viability, T/C","second compound 0.00316 µM, first compound 0.000949 µM",75.5%
same,"viability, T/C","second compound 0.00316 µM, first compound 0.003 µM",72.6%
same,"viability, T/C","second compound 0.00316 µM, first compound 0.00949 µM",47.7%
same,"viability, T/C","second compound 0.00316 µM, first compound 0.03 µM",32.1%
same,"viability, T/C","second compound 0.00316 µM, first compound 0.0949 µM",5.77%
same,"viability, T/C","second compound 0.00316 µM, first compound 0.3 µM",2.39%
same,"viability, T/C","second compound 0.01 µM, first compound 0.000949 µM",105%
same,"viability, T/C","second compound 0.01 µM, first compound 0.003 µM",96.1%
same,"viability, T/C","second compound 0.01 µM, first compound 0.00949 µM",74.5%
same,"viability, T/C","second compound 0.01 µM, first compound 0.03 µM",29.3%
same,"viability, T/C","second compound 0.01 µM, first compound 0.0949 µM",4.51%
same,"viability, T/C","second compound 0.01 µM, first compound 0.3 µM",2.62%
same,"viability, T/C","second compound 0.0316 µM, first compound 0.000949 µM",101%
same,"viability, T/C","second compound 0.0316 µM, first compound 0.003 µM",92.5%
same,"viability, T/C","second compound 0.0316 µM, first compound 0.00949 µM",75.6%
same,"viability, T/C","second compound 0.0316 µM, first compound 0.03 µM",39.5%
same,"viability, T/C","second compound 0.0316 µM, first compound 0.0949 µM",4.33%
same,"viability, T/C","second compound 0.0316 µM, first compound 0.3 µM",1.8%
same,"viability, T/C","second compound 0.1 µM, first compound 0.000949 µM",74.4%
same,"viability, T/C","second compound 0.1 µM, first compound 0.003 µM",73%
same,"viability, T/C","second compound 0.1 µM, first compound 0.00949 µM",45.3%
same,"viability, T/C","second compound 0.1 µM, first compound 0.03 µM",16.6%
same,"viability, T/C","second compound 0.1 µM, first compound 0.0949 µM",3.12%
same,"viability, T/C","second compound 0.1 µM, first compound 0.3 µM",1.09%
same,"viability, T/C","second compound 0.316 µM, first compound 0.000949 µM",63.2%
same,"viability, T/C","second compound 0.316 µM, first compound 0.003 µM",68.2%
same,"viability, T/C","second compound 0.316 µM, first compound 0.00949 µM",60.1%
same,"viability, T/C","second compound 0.316 µM, first compound 0.03 µM",16.1%
same,"viability, T/C","second compound 0.316 µM, first compound 0.0949 µM",1.31%
same,"viability, T/C","second compound 0.316 µM, first compound 0.3 µM",2.22%
same,"viability, T/C","second compound 1 µM, first compound 0.000949 µM",67.3%
same,"viability, T/C","second compound 1 µM, first compound 0.003 µM",38.9%
same,"viability, T/C","second compound 1 µM, first compound 0.00949 µM",34.8%
same,"viability, T/C","second compound 1 µM, first compound 0.03 µM",12.6%
same,"viability, T/C","second compound 1 µM, first compound 0.0949 µM",2.47%
same,"viability, T/C","second compound 1 µM, first compound 0.3 µM",1.44%
